≈ marks a conversion by molar mass, not a printed value. Non-standard residues stand in square brackets, D forms with d. Residues, ends and D or L forms follow the SMILES beside them. Dab = NCC[C@H](N)C(=O)O
Tests used:
[1] = system: Pseudomonas aeruginosa IMP 1 Livermore 3140; type: cell-based; details: IMP 1 Livermore 3140
In short: (§1)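 Inoculum standardised to 0.5 McFarland (approx. 10^6 CFU/ml) in Mueller-Hinton + 0.02% BSA was combined equally with serially halved peptide concentrations in the same medium, per a modified NCCLS microdilution procedure.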

[2] = system: Pseudomonas aeruginosa P1021903; type: cell-based; details: P1021903
In short: as §1

[3] = system: Pseudomonas aeruginosa P1021913; type: cell-based; details: P1021913
In short: as §1

[4] = system: Pseudomonas aeruginosa P8191900; type: cell-based; details: P8191900
In short: as §1

[5] = Plasma stability, human plasma; type: in vitro ADME
[6] = Plasma stability, rat plasma; type: in vitro ADME
[7] = system: Pseudomonas aeruginosa (ATCC 27853); assay: In vivo septicemia assay; set-up: species or system CD-1 mice; details: groups of 6 mice
Procedure: Groups of 6 CD-1 (Crl.) derived male mice weighing 24±2 g were used. The mice were each inoculated intravenously (IV) with an LD90-100 of Pseudomonas aeruginosa (ATCC 27853) (9×10^6 CFU/0.5 ml/mouse) in brain heart infusion broth without 5% mucin. Compound at doses of 5, 2.5, 1, 0.5, 0.25 and 0.1 mg/kg, vehicle (0.9% NaCl, 10 ml/kg) was administered subcutaneously (SC) to test animals at 1 hour after bacterial inoculation. Also, an additional group was treated twice with compound at a dose of 5 mg/kg at 1 and 6 hours after bacterial inoculation. Mortality was recorded once daily for 7 days following the bacterial inoculation and an increase of survival of the animals by 50 percent or more (^3 50%) after the bacterial inoculation, relative to vehicle control, indicates significant antimicrobial effect. The MED (ED50) was determined by nonlinear regression using Graph-Pad Prism (Graph Pad Software, USA).
Septicaemia experiment in mice: LD90-100 of Pseudomonas aeruginosa (ATCC 27853) (9×10^6 CFU/0.5 ml/mouse IV and after 1 h Ex. 1 s.c.
Septicaemia experiment in mice: LD90-100 of Pseudomonas aeruginosa (ATCC 27853) (9×10^6 CFU/0.5 ml/mouse IV), and after 1 and 5 h Ex. 40 s.c.
Septicaemia experiment in mice: LD90-100 of Pseudomonas aeruginosa (ATCC 27853) (9×10^6 CFU/0.5 ml/mouse IV), and after 1 and 5 h Ex. 50 s.c.

[8] = 0.1 mg/kg, 1 h after inoculation
[9] = 0.25 mg/kg, 1 h after inoculation
[10] = 0.5 mg/kg, 1 h after inoculation
[11] = 2.5 mg/kg, 1 h after inoculation

## CC[C@H](C)[C@@H]1NC(=O)[C@H](Cc2c[nH]c3ccccc23)NC(=O)[C@H]([C@@H](C)O)NC(=O)[C@@H]2CCCN2C(=O)[C@H]2CCCN2C(=O)[C@H](CCN)NC(=O)[C@H](C)NC(=O)[C@H](CCN)NC(=O)[C@H](CCN)NC(=O)[C@H](Cc2c[nH]c3ccccc23)NC(=O)[C@H](CCN)NC(=O)[C@H](CCN)NC(=O)[C@H](CCCCN)NC(=O)[C@H](CCN)NC1=O [Example 1] (cyclo(TWI[Dab]K[Dab][Dab]W[Dab][Dab]A[Dab][dP]P))
[1]
  MIC P. aeruginosa IMP1 Livermore 3140: 0.18 µg/mL (≈ 0.114 µM)
[2]
  MIC P. aeruginosa P1021903: 0.07 µg/mL (≈ 0.0443 µM)
[3]
  MIC P. aeruginosa P1021913: 0.13 µg/mL (≈ 0.0822 µM)
[4]
  MIC P. aeruginosa P8191900: 0.07 µg/mL (≈ 0.0443 µM)
[5]
  Stability human Plasma t1/2: 5 h
[6]
  Stability rat Plasma t1/2: 5 h
[7]; [8]
  Dead: 5
  Survivors: 1
[7]; [9]
  Dead: 5
  Survivors: 1
[7]; [10]
  Dead: 2
  Survivors: 4
[7]; 1 mg/kg, 1 h after inoculation
  Dead: 1
  Survivors: 5
[7]; [11]
  Dead: 0
  Survivors: 6
[7]; 5 mg/kg, 1 h after inoculation
  Dead: 0
  Survivors: 6
[7]; 10 (2 × 5) mg/kg, 7 days
  Dead: 0
  Survivors: 6
P. aeruginosa
  Average MIC: 0.10 µg/mL

Source: patent US9521846B2, “Template-fixed peptidomimetics with antimicrobial activity” (priority 2006, dated 2016)
